This note sets out measurements from patent US5153352A, “Process for preparation of intermediates of carbocyclic nucleoside analogs” (priority 1990, dated 1992).

For data set [1], the system named is Human Immunodeficiency Virus (HIV-1). As to the kind of experiment: anti-HIV-1 protection of ATH8 cells (method of Mitsuya and Broder). Type of data set: cell-based. The settings on record: Human immunodeficiency virus 1, ATH-8, HIV-1, ATH8 cells, read-out: Protective Effect. An excerpt: The method of Mitsuya and Broder (AIDS: Modern Concepts and Therapeutic Challenges; Broder, S. ED.; Marcel Dekker, Inc.; New York, 1987; Chapter 18) was used to determine the in vitro anti-HIV-1 and anti-HIV-2 activity in ATH8 cells of some compounds of the invention. The results of the test are expressed as the percentage of ATH8 cells that were protected from the cytopathogenic effects of HIV at various concentrations of the compound of the invention.

Data set [2] has as its system Human Immunodificiency Virus (HIV-1). As to the kind of experiment: HIV-1 antigen inhibition in H9 cells. Type of data set: cell-based, HIV-1 (HTLV-IIIB). The settings on record: Human immunodeficiency virus 1, HIV-1, H9 cells; for IC50: HIV antigen levels. Here is the method:
Uninfected H9 cells at 4×10^5 viable cells/ml were infected with approximately 100 viral infectious units (ifu) for 2 hrs at 37° C. The viral infectious dose (ifu) was determined by the tissue culture infectious dose (TCID50) method for each stock of HIV-1 (HTLV-IIIB) and HIV-2. Cells were washed three times to remove residual virus, then resuspended in RPMI-1640 growth medium containing test compound at various concentrations, then transferred to 24 well tissue culture plates and grown at 5% CO2 at 37° C. Infected cells in media containing no drug were run simultaneously as a control. Aliquots of culture supernatants were removed at 4, 6 and 10 days and monitored for HIV antigen levels by the Abbott HIV 1 antigen enzyme immunoassay (HIVAG-1). Cell viability was also determined at these time points and cells were refed with media containing test compound (except for control wells). Anti-HIV activity is reported as the concentration of compound causing a 50% inhibition (IC50) in HIV antigen levels versus infected cells without test compound.

Data set [3] in a line: cytotoxicity in uninfected PHA-stimulated human PBM cells. The settings on record: uninfected PBMC, 6 days, read-out: Cytotoxicity in PBMC IC50. Type of data set: cell-based. The method, then:
Human peripheral blood mononuclear cells (PBMC) from healthy HIV-1 seronegative and hepatitis B virus seroneqative donors were isolated by Ficoll-Hypague discontinuous gradient centrifugation at 1,000×g for 30 minutes, washed twice in phosphate buffered saline (pH 7.2; PBS), and pelleted at 300×g for 10 minutes. Before infection, the cells were stimulated by phytohemagglutinin (PHA) at a concentration of 16.7 ug/ml for three days in RPMI 1640 medium supplemented with 15% heat-inactivated fetal calf serum, 1.5 mM L-glutamine, penicillin (100 U/ml), streptomycin (100 ug/ml) and 4 mM sodium bicarbonate buffer.
The test compounds were evaluated for their potential toxic effects on uninfected PHA-stimulated human PBM cells. The cells were cultured with and without test compound for 6 days at which time aliquots were counted for cell viability.

Data set [4] can be described thus: MTT cytotoxicity assay in MRC5 cells. It is filed as cell-based. The conditions noted are these: human. The method, then:
Human diploid embryonic lung (MRC5) cells were grown in 35 mm wells of 6-well tissue culture plates. Subconfluent cell monolayers were rinsed with phosphate buffered saline (PBS) and were exposed to 0.5 ml/well of HCMV (strain AD169) suspension for 1.5 hours at 37° C. The virus suspension was diluted in MEM+2% fetal bovine serum (FBS) to yield a multiplicity of infection (MOI) of approximately 0.1 plaque forming units (PFU)/cell. Following the virus adsorption period, the inocula were removed and infected cell layers were rinsed with PBS. Aliquots (2.0 ml) of each test drug concentration (dissolved in MEM supplemented with 2% FBS) were dispensed into triplicate cell cultures: two virus infected cultures and one uninfected cytotoxicity control culture (exposed to medium without virus for 1.5 hours). Untreated virus infected control cultures and untreated, uninfected cell control cultures were fed with medium alone.
All cell culture fluids were replaced with fresh drug and medium 48 hours postinfection (p.i.).
Drug cytotoxicity was determined quantitatively by a method based on the reduction of the tetrazolium salt, 3-(4,5-dimethyl-thiazol-2-yl)-2,5-diphenyl tetrazolium bromide (MTT) by mitochondrial enzymes of viable host cells to MTT formazan (T. Mosmann, 1983). Drug cytotoxicity controls and cell controls were treated with MTT (dissolved in culture medium) followed by 20% SDS (in 0.02 N HCl) to dissolve the crystals of MTT formazan. The blue color of the MTT formazan was measured spectrophotometrically at 570 nm. Drug cytotoxicity was determined by comparing the absorbance (O.D.) of each drug cytotoxicity control with the mean O.D. of the cell control cultures and expressed as percent of control.

Another data set has as its system mice. As to the kind of experiment: toxicity in uninfected mice (Herpesvirus 1 study). Type of data set: in vivo, mouse. The settings on record: 7 doses. Here is the method:
Four-week-old female outbred Swiss mice (CD 1, VAF+, Charles River Labs) were housed 5 per Microisolator® cage. Feed and water were supplied ad libitum. Fifteen mice were randomly assigned to each of the following treatment groups:
Test compounds were diluted in 0.4% carboxymethylcellulose (CMC) prepared in phosphate buffered saline (PBS) at concentrations consistent with dosing at 0.1 ml per 10 q of body weight. Compounds were administered subcutaneously once daily for a total of 7 doses. Five mice in each treatment group served as uninfected toxicity controls. The remaining ten mice in each group were challenged intraperitoneally with an LD90 dose of the twelfth in vivo passage of Herpesvirus 1 (strain 123). Virus challenge was administered two hours after the first dose of compound was given. Mortality was monitored daily for 21 days. The mortality rates, average day of death, geometric mean time to death and virus rating were calculated for each treatment group.

A further data set relates to Epstein-Barr virus (EBV). As to the kind of experiment: EBV genome copies in virus producing cells (P3HR-1). Type of data set: cell-based. The conditions noted are these: P3HR-1 cells, 14 days, control 214. Here is the method: Virus producing cells (P3HR-1) were exposed to test compound for 14 days and EBV genome copies per cell were determined by EBV specific cRNA DNA hybridization (Lin, et al., J. Virology 50 50-55 (1984). The results of this test are presented in Table 7.

Another data set is described as follows: in vitro. The settings on record: monkey, vero cells, MTC (minimum drug concentration causing any cytotoxicity).
Data set [5] relates to Herpes simplex type 1 (HSV-1) strain E-377. As to the kind of experiment: CPE-inhibition assay, HSV-1 strain E-377 in Vero cells.

≈ marks a conversion by molar mass, not a printed value. Where “and” joins values, the source holds several entries; their conditions need not be identical. Identical values can stand only once.

For the molecule `Nc1nc2c(ncn2C2CC(CO)C2CO)c(=O)[nH]1` (centres unmarked) [Example 1I, 9-(2',3'-Bis(hydroxymethyl)cyclobutyl)guanine], the inhibition at 1 µM in data set [1] amounted to 51%. The inhibition at 10 µM in data set [1] worked out at 90%; in data set [2], 88%. The molecule further displayed an inhibition at 0.312 µM in data set [2] (0.312 uM) of 0%. In data set [2], this molecule registered an inhibition at 0.625 µM of 19%. The molecule also had an inhibition at 1.25 µM in data set [2] (1.25 uM) of 63%. Moreover, the inhibition at 2.5 µM in data set [2] stood at 75%. In addition, half-maximal inhibition in data set [2] (IC50) required 1.1 µM. Besides, the CC50 at 144 h in data set [3] is 38.8 µM. Further, the viability in data set [4] (1.0 ug/ml), in data set [4] (3.2 ug/ml), in data set [4] (10 ug/ml) and in data set [4] (32 ug/ml) was 100% throughout. In addition, the “No. Dead/No. Uninfected” value in the data set on mice (3.2 mg/kg s.c. once daily) is reported as 0/5; in the data set on mice (10 mg/kg s.c. once daily) it was 0/5; in the data set on mice (32 mg/kg s.c. once daily), 0/3. The EBV genome copies/cell with Epstein-Barr virus (EBV) (0.01 uM) was found to be 223 EBV genome copies/cell; in the data set on Epstein-Barr virus (EBV) (0.10 uM) it was 181 EBV genome copies/cell; with Epstein-Barr virus (EBV) (1.00 uM) it was 40 EBV genome copies/cell; in the data set with Epstein-Barr virus (EBV) (5.00 uM), 12 EBV genome copies/cell; with Epstein-Barr virus (EBV) (10.00 uM), 10 EBV genome copies/cell. Further, in the data set “in vitro”, the MCC came out at 320 µg/mL. The “TI (Therapeutic Index, MTC/ID50)” value in data set [5] (HSV-1 (E-377), Vero) was 213 and 129. Also, in data set [5] (Human alphaherpesvirus 1, Vero, read-out: ID50 (minimum drug concentration that inhibited the CPE by 50%), HSV-1 (E-377), Vero), the EC50 turned out to be 1.5 µg/mL (≈ 5.65 µM).

On to `Nc1ncnc2c1ncn2C1CC(CO)C1CO` (centres unmarked) [Example 4C, 9-(2',3'-Bis(hydroxymethyl)cyclobutyl)adenine], for which, in data set [1], the inhibition at 1 µM was determined as 48% and the inhibition at 10 µM amounted to 63%. For the same molecule, the inhibition at 100 µM in data set [1] (100 uM) turned out to be 76%. In data set [2], the inhibition at 0.625 µM worked out at 0%, the inhibition at 2.5 µM stood at 62%, the inhibition at 10 µM was found to be 98% and it took 2.1 µM to reach half-maximal inhibition (IC50). The molecule further returned an inhibition at 5 µM in data set [2] (5 uM) of 96%. The CC50 at 144 h in data set [3] was determined as 23 µM. In addition, the viability (as a rule, the share of living cells, or the viability signal relative to a control) in data set [4] (3.2 ug/ml) came to 95%. The molecule further displayed a viability in data set [4] (10 ug/ml) of 90%. Further, the viability in data set [4] (32 ug/ml) was found to be 67%. Further, the “TI (Therapeutic Index, MTC/ID50)” value in data set [5] (HSV-1 (E-377), Vero) was 3.7 and > 2.2. Besides, in data set [5] (HSV-1 (E-377), Vero, >1.0 definite, 0.5-0.9 marginal to moderate, <0.5 no significant activity), the “VR (Virus Rating)” value is 2.1.
